Measurements as given in article PMC7559231, “Drug-induced cholestasis assay in primary hepatocytes” (MethodsX, 2020).
Like-named read-outs stand apart in the source and are kept apart here.

Assays:
[1] = system: sandwich-cultured human hepatocytes; assay: Drug-induced cholestasis (DIC) assay: urea formation in sandwich-cultured human hepatocytes with and without the bile salt mixture; conditions: lowest in vitro concentration with DICI < 0.78 / Cmax,total; for DICI-based SM obtained with the ‘original’ LOAEL method 24 h: 24 h incubation; for DICI-based SM obtained with the ‘original’ LOAEL method 48 h: 48 h incubation
Source text: Drug-induced cholestasis (DIC) is a major cause of attrition during drug development and post-marketing withdrawal. Early detection of DIC is crucial for avoiding financial losses and improving drug safety. Preclinical assays for DIC detection often rely on evaluation of the test compound towards individual cellular targets such as their inhibitory potential towards the bile salt export pump (BSEP) by using BSEP membrane vesicles. However, the underlying mechanisms of DIC development are more complex involving multiple other transporters and nuclear receptors. A more comprehensive in vitro model such as sandwich-cultured human hepatocytes (SCHH) are more suited due to the presence of metabolizing enzymes and transporters relevant to bile salt disposition. The assay described here relies on changes in the ability of SCHH to produce urea from ammonia in the absence and presence of a (patho-)physiologically relevant bile salt mixture. Ammonia is detoxified in the hepatocyte by the urea cycle to form non-toxic urea. Measuring changes in urea production allows for the quantitative evaluation of the hepatocyte's biochemical and functional integrity. The colorimetric quantitation of urea formation is based on the reaction between urea and diacetylmonoxime.
By determining the ratio of urea formation after incubation with test compound in absence and in presence of the bile salt mixture, the DIC index (DICI) value can be calculated. […] It was previously established that a compound with a SM below 30 can be considered to display increased risk for causing cholestasis in the clinic.
If longer incubations are required (e.g. 48 h), the medium is changed again after 24 h (day 6) with fresh medium containing the same initial concentrations of test compound and bile salts as 24 h before.
• Solution 1: culture medium with no compound and 0.2% DMSO. […] This solution should be filtered through a 0.2 µm filter and prewarmed for 30 min at 37°C. • Solution 4: culture medium with double concentrated test compound. […] This solution should be filtered through a 0.2 µm filter and prewarmed for 30 min at 37°C. • Solution 5: control medium with bile salts, prepared by mixing solution 1 and solution 2 in a 1:1 ratio. • Solution 6: culture medium with positive control without bile salts, prepared by mixing solution 1 and solution 3 in a 1:1 ratio. • Solution 7: culture medium with positive control with bile salts, prepared by mixing solution 2 and solution 3 in a 1:1 ratio. • Solution 8: culture medium with test compound without bile salts, prepared by mixing solution 1 and solution 4 in a 1:1 ratio. • Solution 9: culture medium with test compound with bile salts, prepared by mixing solution 2 and solution 4 in a 1:1 ratio.
• 1. On day 5, aspirate the medium and preincubate the cells with solution 1, solution 6 or solution 8 for 2 h. Note: this preincubation step is performed to enable the compounds to interact with the cellular machinery. • 2. After 2 h, aspirate the medium and immediately incubate the cells with solution 1, solution 5, solution 6, solution 7, solution 8 or solution 9 for 22 h.
The urea assay is performed on day 6 or day 7 for 24 h and 48 h incubations, respectively.
• Solutions for the color reagent. […] Note: perform this procedure on ice as this is an exothermic reaction. Wear appropriate protective gear. • ○ Solution B prepared by mixing the thiosemicarbazide solution and the diacetyl monoxime in a 1:1 ratio. • Incubation buffer: HBSS containing 10 mM HEPES, 2 mM glutamine, 10 mM ammonium chloride and 3 mM ornithine, filtered through a 0.2 µm filter and prewarmed at 37°C. • 96-well thermostable plate with aluminum cover slip.
• 1. Aspirate the culture medium. • 2. Wash the wells twice with 250 µL prewarmed incubation buffer. Aspirate the remaining buffer. • 3. Add 125 µL prewarmed incubation buffer to each well and keep the plate at 37°C for 1 h. • 4.

[2] = system: sandwich-cultured human hepatocytes; conditions: SCHH, ref [6],[7], cited from earlier work; for DICI 24 h Mean: 24 h exposure; for DICI 48 h Mean: 48 h exposure
[3] = design: method as in per compound in column References of Table 3 ([3], [24]-[44]); conditions: mean total peak plasma concentration in humans; ref per compound in Table 3 ([3], [24]-[44]); cited from earlier work

SMILES | DICI-based SM obtained with the ‘original’ LOAEL method 24 h [1] | DICI-based SM obtained with the ‘original’ LOAEL method 48 h [1] | DICI 24 h Mean ([2]; 10 µM test compound) | DICI 48 h Mean ([2]; 10 µM test compound) | DICI 24 h Mean ([2]; 50 µM test compound) | DICI 48 h Mean ([2]; 50 µM test compound) | Cmax,total [3] [µM] | DICI 24 h Mean ([2]; 100 µM test compound) | further results
O=C1CC2(CCCC2)CC(=O)N1CCCCN1CCN(c2ncccn2)CC1 [Buspirone, buspirone] | 5000 | 15000 | 0.82 | 0.95 | 0.68 | 0.48 | 0.01 |  | DICI 24 h Mean ([2]; 0.5 µM test compound): 0.69; DICI 48 h Mean ([2]; 0.5 µM test compound): 0.82; DICI 24 h Mean ([2]; 1 µM test compound): 0.87; DICI 48 h Mean ([2]; 1 µM test compound): 0.90; DICI 24 h Mean ([2]; 5 µM test compound): 0.74; DICI 48 h Mean ([2]; 5 µM test compound): 0.95; DICI 24 h Mean ([2]; 25 µM test compound): 0.84; DICI 48 h Mean ([2]; 25 µM test compound): 0.71; DICI 24 h Mean ([2]; 150 µM test compound): 0.53; DICI 48 h Mean ([2]; 150 µM test compound): 0.37
O=c1[nH]c(=O)n([C@@H]2O[C@H](CO)[C@@H](O)[C@@H]2F)cc1I [Fialuridine, fialuridine] | 468.75 |  | 0.88 | 0.92 | 0.79 | 1.19 | 0.64 | 1.12 | DICI 24 h Mean ([2]; 20 µM test compound): 0.94; DICI 48 h Mean ([2]; 20 µM test compound): 0.79; DICI 24 h Mean ([2]; 30 µM test compound): 0.95; DICI 48 h Mean ([2]; 30 µM test compound): 1.26; DICI 48 h Mean ([2]; 100 µM test compound): 0.89; DICI 24 h Mean ([2]; 300 µM test compound): 0.82; DICI 48 h Mean ([2]; 300 µM test compound): 0.96
CC[C@H]1OC(=O)[C@H](C)[C@@H](O[C@H]2C[C@@](C)(OC)[C@@H](O)[C@H](C)O2)[C@H](C)[C@@H](O[C@@H]2O[C@H](C)C[C@H](N(C)C)[C@H]2O)[C@](C)(O)C[C@@H](C)C(=O)[C@H](C)[C@@H](O)[C@]1(C)O [Erythromycin, erythromycin] | 50.38 |  |  |  | 0.94 |  | 3.97 | 1.29 | DICI 24 h Mean ([2]; 200 µM test compound): 1.42
Cc1ccc(C(=O)c2cc(O)c(O)c([N+](=O)[O-])c2)cc1 [Tolcapone, tolcapone] | 1.05 | 1.05 | 1.05 | 0.89 | 0.91 | 0.79 | 47.6 |  | DICI 24 h Mean ([2]; 5 µM test compound): 0.98; DICI 48 h Mean ([2]; 5 µM test compound): 1.01
CC(C)c1nc(CN(C)C(=O)N[C@H](C(=O)N[C@@H](Cc2ccccc2)C[C@H](O)[C@H](Cc2ccccc2)NC(=O)OCc2cncs2)C(C)C)cs1 [Ritonavir, ritonavir] |  |  |  |  |  |  | 13.24 |  | 
CN(CCOc1ccc(CC2SC(=O)NC2=O)cc1)c1ccccn1 (stereo not shown) [Rosiglitazone, rosiglitazone] | 56.31 |  |  |  |  |  |  |  | 
COc1ccccc1Oc1c(NS(=O)(=O)c2ccc(C(C)(C)C)cc2)nc(-c2ncccn2)nc1OCCO [Bosentan, bosentan] | 27.06 | 27.06 |  |  | 1.07 | 1.06 | 7.39 | 0.99 | DICI 48 h Mean ([2]; 100 µM test compound): 0.87; DICI 24 h Mean ([2]; 200 µM test compound): 1.15; DICI 48 h Mean ([2]; 200 µM test compound): 1.02
CC(=O)CC(c1ccccc1)c1c(O)c2ccccc2oc1=O (stereo not shown) [Warfarin, warfarin] | 71.74 |  |  |  |  |  |  |  | DICI 24 h Mean ([2]; 500 µM test compound): 1.31
CCOC(=O)CN[C@@H](C(=O)N1CC[C@H]1C(=O)NCc1ccc(/C(N)=N\O)cc1)C1CCCCC1 [Ximelagatran, ximelagatran] | 500 | 500 |  |  | 0.95 | 0.93 | 0.3 |  | DICI 24 h Mean ([2]; 25 µM test compound): 0.85; DICI 48 h Mean ([2]; 25 µM test compound): 0.95; DICI 24 h Mean ([2]; 150 µM test compound): 1.02; DICI 48 h Mean ([2]; 150 µM test compound): 1.05
CO[C@H]1C[C@H](O[C@H]2[C@H](C)[C@@H](O[C@@H]3O[C@H](C)C[C@H](N(C)C)[C@H]3OC(C)=O)[C@@H](C)C[C@@]3(CO3)C(=O)[C@H](C)[C@@H](OC(C)=O)[C@@H](C)[C@@H](C)OC(=O)[C@@H]2C)O[C@@H](C)[C@@H]1OC(C)=O [Troleandomycin, troleandomycin] |  |  | 1.00 | 0.83 | 0.93 |  |  | 0.97 | DICI 24 h Mean ([2]; 12.5 µM test compound): 1.41; DICI 24 h Mean ([2]; 20 µM test compound): 1.12; DICI 48 h Mean ([2]; 20 µM test compound): 0.91; DICI 24 h Mean ([2]; 25 µM test compound): 1.13
CN(C)C(=N)N=C(N)N [Metformin, metformin] |  |  |  |  |  |  | 7.75 |  | DICI 24 h Mean ([2]; 150 µM test compound): 1.09; DICI 48 h Mean ([2]; 150 µM test compound): 1.34; DICI 24 h Mean ([2]; 300 µM test compound): 1.03; DICI 48 h Mean ([2]; 300 µM test compound): 1.26; DICI 24 h Mean ([2]; 900 µM test compound): 1.12; DICI 48 h Mean ([2]; 900 µM test compound): 1.18
Clc1ccccc1CN1CCc2sccc2C1 [Ticlopidine, ticlopidine] |  |  |  |  |  |  | 2.898 |  | 
C1CCC(C(CC2CCCCN2)C2CCCCC2)CC1 (stereo not shown) [Perhexiline, perhexiline] | 30.09 | 30.09 |  |  |  |  |  |  | DICI 24 h Mean ([2]; 3 µM test compound): 1.00; DICI 48 h Mean ([2]; 3 µM test compound): 0.80; DICI 24 h Mean ([2]; 9 µM test compound): 1.03; DICI 48 h Mean ([2]; 9 µM test compound): 0.98; DICI 24 h Mean ([2]; 65 µM test compound): 1.10; DICI 48 h Mean ([2]; 65 µM test compound): 1.02
